Experimental data published in patent US10724055B2, “Methods for sustaining the viability of microorganisms during a cessation of syngas flow and processes for storage and reactivation of microorganisms” (Synata Bio, Inc., priority 2015, dated 2020).

How the values were obtained:
Assay in all cases: Sustaining microorganisms with formate moiety during cessation of syngas feed, recovery on syngas resumption
Type in all cases: cell-based
[1] = system: Clostridium autoethanogenum
Protocol: (§1) A stirred, 10 liter, continuous fermenter is used under anaerobic bioconversion conditions with a feed gas comprising about 63.3 volume percent hydrogen; 20.5 volume percent carbon monoxide; 6.8 volume percent carbon dioxide; 8.2 volume percent methane and 1.2 volume percent nitrogen. During steady state operation, the gas feed is supplied at about 280 to 290 […] (measured at atmospheric pressure and 25° C.) and a media feed is provided at about 200 milliliters per hour. The media feed is an aqueous solution containing:
(§2) An aqueous solution of about 60 millimoles of sodium metabisulfite is separately added at a rate of 0.6 milliliters per hour. The fermenter is maintained at about 37° C. at a pH of about 5.0. The stirring rate is approximately 600 revolutions per minute.
In each example, the fermentation, using the microorganism specified in Table 1, is operated to achieve stable, steady-state conditions. The flow of syngas is then stopped. […] After a predetermined period, the addition of formate moiety is stopped, the nitrogen sweep gas is stopped and the syngas is resumed at a rate that matches the uptake capacity of the microbial population. The stirring is increased to about 600 rpm, and the flow rates of the media feed and metabisulfite feed are resumed to the levels existing prior to the cessation of the syngas feed.

Clostridium radsdalei = conditions: Example 3; formate feed 5 mole % of electrons; outage 12 hrs; no media or sulfur feed
Protocol: as §1, §2
(§3) In each example, the fermentation, using the microorganism specified in Table 1, is operated to achieve stable, steady-state conditions. The flow of syngas is then stopped. At the time of stoppage of syngas feed, the fermenter is operated in batch mode (no aqueous stream draw from the fermenter), nitrogen gas at about 15 milliliters per minute (atmospheric pressure and 25° C.) is fed to sweep the head space of the fermenter, and the stirring rate is reduced to about 100 rpm. After a predetermined period, the addition of formate moiety is stopped, the nitrogen sweep gas is stopped and the syngas is resumed at a rate that matches the uptake capacity of the microbial population. The stirring is increased to about 600 rpm, and the flow rates of the media feed and metabisulfite feed are resumed to the levels existing prior to the cessation of the syngas feed.

[2] = system: Clostridium autoethanogenum; conditions: Example 2; formate feed 3.5 mole % of electrons; outage 6 hrs; media feed 10%; Na2S 20 mg/hr; argon sweep gas
Clostridium coskatii = conditions: no media or sulfur feed
Protocol: as §1, §2, §3

[3] = Example 9, formate feed 10 mole % of electrons, outage 6 hrs, no media or sulfur feed
[4] = Example 10, formate feed 10 mole % of electrons, outage 24 hrs, no media or sulfur feed
[5] = Example 1, formate feed 3.5 mole % of electrons prior to outage, syngas outage 6 hrs, media feed 10%, Na2S 20 mg/hr, nitrogen sweep
[6] = Example 8, formate feed 3.5 mole % of electrons, outage 6 hrs, no media or sulfur feed
[7] = Example 4, formate feed 3.5 mole % of electrons, outage 6 hrs
[8] = Example 5, formate feed 3.5 mole % of electrons, outage 24 hrs
[9] = Example 6, formate feed 15 mole % of electrons, outage 24 hrs

O=CO [Formic acid]
Yes: CO uptake recovery [1, 3] | H2 uptake recovery [1, 3] | CO uptake recovery [1, 4] | H2 uptake recovery [1, 4]

O=C[O-].[Na+] [Sodium salt]
Yes: CO uptake recovery [1, 5] | H2 uptake recovery [1, 5] | H2 uptake recovery ([1]; Example 2, formate feed 3.5 mole % of electrons, outage 6 hrs, media feed 10%, Na2S 20 mg/hr, argon sweep gas) | CO uptake recovery [1, 6] | H2 uptake recovery [1, 6] | CO uptake recovery (Clostridium radsdalei) | H2 uptake recovery (Clostridium radsdalei) | CO uptake recovery [2]

N.O=CO [NH4^+ salt]
Yes: CO uptake recovery (Clostridium coskatii; [7]) | H2 uptake recovery (Clostridium coskatii; [7]) | CO uptake recovery (Clostridium coskatii; [8]) | H2 uptake recovery (Clostridium coskatii; [8]) | CO uptake recovery (Clostridium coskatii; [9]) | H2 uptake recovery (Clostridium coskatii; [9])
